Data taken from patent US10640506B2, “Cyclobutyl substituted pyrrolopyridine and pyrrolopyrimidines derivatives as JAK inhibitors” (Incyte Corporation, priority 2010, dated 2020).
Where a name gives a salt, the structure may show the parent alone. Read-outs that look alike come from different tables or passages of the source.

Experiments:
[1] = target: human JAK1 (a.a. 837-1142) (Homo sapiens, UniProt P23458); assay: In vitro JAK kinase assay (HTRF, phosphorylation of biotinylated peptide), JAK1; assay type: biochemical; conditions: 1 mM ATP
Sequence of human JAK1 (a.a. 837-1142) (P23458 849-1154): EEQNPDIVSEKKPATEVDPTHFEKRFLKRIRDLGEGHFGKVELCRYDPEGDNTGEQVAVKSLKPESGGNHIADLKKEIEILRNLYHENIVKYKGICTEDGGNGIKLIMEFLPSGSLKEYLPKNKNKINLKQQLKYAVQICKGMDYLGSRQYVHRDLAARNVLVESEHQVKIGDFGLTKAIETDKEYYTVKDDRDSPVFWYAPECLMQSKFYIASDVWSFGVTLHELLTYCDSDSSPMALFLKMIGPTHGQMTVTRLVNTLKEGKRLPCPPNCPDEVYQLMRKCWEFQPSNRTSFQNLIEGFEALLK
Summary of the method: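 His-tagged human JAK1 catalytic domain (a.a. 837-1142), baculovirus/insect-cell expressed, phosphorylates a biotinylated peptide for 1 h at room temperature. Reaction stopped with EDTA; product detected by HTRF (SA-APC, Eu-Py20, 40 min binding). IC50 reported as ranges.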

JAK2 (a.a. 828-1132) = target: T1, JAK2 (a.a. 828-1132) (Homo sapiens, UniProt O60674); assay: In vitro JAK kinase assay (HTRF, phosphorylation of biotinylated peptide), JAK2; assay type: biochemical; conditions: 1 mM ATP
T1 construct: JAK2 (a.a. 828-1132); His tag (N)
T1 sequence (O60674 828-1132): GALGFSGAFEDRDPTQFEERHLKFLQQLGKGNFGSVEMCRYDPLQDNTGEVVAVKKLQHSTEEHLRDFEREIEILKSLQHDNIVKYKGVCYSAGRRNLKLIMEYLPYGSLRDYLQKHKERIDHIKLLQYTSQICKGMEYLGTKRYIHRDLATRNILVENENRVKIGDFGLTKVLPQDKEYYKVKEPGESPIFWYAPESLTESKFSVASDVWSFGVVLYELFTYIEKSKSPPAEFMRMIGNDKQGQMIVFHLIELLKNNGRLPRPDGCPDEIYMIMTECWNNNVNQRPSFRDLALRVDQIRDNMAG
Summary of the method: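 His-tagged catalytic domains of human JAK1 (a.a. 837-1142) and JAK2 (a.a. 828-1132), baculovirus-expressed, phosphorylate a biotinylated peptide for 1 hour at room temperature. Stopped with EDTA; detected by HTRF using SA-APC and Eu-Py20 antibody after 40 min binding; values binned as ranges.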

| SMILES | IC50 ([1]; Table F) [nM] | IC50 (JAK2 (a.a. 828-1132); Table F) [nM] | other results |
| --- | --- | --- | --- |
| CN(C)C1(c2cc(C(=O)N3CCN([C@H]4C[C@](CC#N)(n5cc(-c6ncnc7[nH]ccc67)cn5)C4)CC3)nc(C(F)(F)F)n2)CCC1 [Example 63, {trans-3-(4-{[6-[1-(dimethylamino)cyclobutyl]-2-(trifluoromethyl)pyrimidin-4-yl]carbonyl}piperazin-1-yl)-1-[4-(7H-pyrrolo[2,3-d]pyrimidin-4-yl)-1H-pyrazol-1-yl]cyclobutyl}acetonitrile] | < 10 | 25 to 100 |  |
| N#CC[C@]1(n2cc(-c3ncnc4[nH]ccc34)cn2)C[C@@H](N2CCN(C(=O)NC3CCCC3)CC2)C1 [Example 109, 4-{cis-3-(cyanomethyl)-3-[4-(7H-pyrrolo[2,3-d]pyrimidin-4-yl)-1H-pyrazol-1-yl]cyclobutyl}-N-cyclopentylpiperazine-1-carboxamide] | < 10 | 25 to 100 |  |
| N#CC[C@]1(n2cc(-c3ncnc4[nH]ccc34)cn2)C[C@H](N2CCN(Cc3cncc(F)c3)CC2)C1 [Example 23b, {trans-3-{4-[(5-fluoropyridin-3-yl)methyl]piperazin-1-yl}-1-[4-(7H-pyrrolo[2,3-d]pyrimidin-4-yl)-1H-pyrazol-1-yl]cyclobutyl}acetonitrile] |  |  | IC50 ([1]; Table B, read-out: JAK1 IC50): < 10 nM; IC50 (JAK2 (a.a. 828-1132); Table B, read-out: JAK2 IC50): 25 to 100 nM |
| CC(C)[C@H](C)NC(=O)N1CCN([C@H]2C[C@@](CC#N)(n3cc(-c4ncnc5[nH]ccc45)cn3)C2)CC1 [Example 111, 4-{cis-3-(cyanomethyl)-3-[4-(7H-pyrrolo[2,3-d]pyrimidin-4-yl)-1H-pyrazol-1-yl]cyclobutyl}-N-[(1S)-1,2-dimethylpropyl]piperazine-1-carboxamide] | 10 to 25 | > 100 |  |
| CC(C)[C@@H](C)NC(=O)N1CCN([C@H]2C[C@](CC#N)(n3cc(-c4ncnc5[nH]ccc45)cn3)C2)CC1 [Example 93, 4-{trans-3-(cyanomethyl)-3-[4-(7H-pyrrolo[2,3-d]pyrimidin-4-yl)-1H-pyrazol-1-yl]cyclobutyl}-N-[(1R)-1,2-dimethylpropyl]piperazine-1-carboxamide] | < 10 | 25 to 100 |  |
| CCCN(C)C(=O)N1CCN([C@H]2C[C@](CC#N)(n3cc(-c4ncnc5[nH]ccc45)cn3)C2)CC1 [Example 80, 4-{trans-3-(cyanomethyl)-3-[4-(7H-pyrrolo[2,3-d]pyrimidin-4-yl)-1H-pyrazol-1-yl]cyclobutyl}-N-methyl-N-propylpiperazine-1-carboxamide] | < 10 | 25 to 100 |  |
| N#CC[C@]1(n2cc(-c3ncnc4[nH]ccc34)cn2)C[C@H](N2CCN(C(=O)c3cc(F)cc(C#N)c3)CC2)C1 [Example 12b, 3-[(4-{trans-3-(cyanomethyl)-3-[4-(7H-pyrrolo[2,3-d]pyrimidin-4-yl)-1H-pyrazol-1-yl]cyclobutyl}piperazin-1-yl)carbonyl]-5-fluorobenzonitrile] |  |  | IC50 ([1]; Table B, read-out: JAK1 IC50): < 10 nM; IC50 (JAK2 (a.a. 828-1132); Table B, read-out: JAK2 IC50): 10 to 25 nM |
| N#CC[C@]1(n2cc(-c3ncnc4[nH]ccc34)cn2)C[C@H](N2CCN(C(=O)N3CC[C@H](O)C3)CC2)C1 [Example 91, {trans-3-(4-{[(3S)-3-hydroxypyrrolidin-1-yl]carbonyl}piperazin-1-yl)-1-[4-(7H-pyrrolo[2,3-d]pyrimidin-4-yl)-1H-pyrazol-1-yl]cyclobutyl}acetonitrile] | 25 to 100 | > 100 |  |
| CCNCc1cc(C(=O)N2CCN([C@H]3C[C@](CC#N)(n4cc(-c5ncnc6[nH]ccc56)cn4)C3)CC2)nc(C(F)(F)F)n1 [Example 47, {trans-3-(4-{[6-[(Ethylamino)methyl]-2-(trifluoromethyl)pyrimidin-4-yl]carbonyl}piperazin-1-yl)-1-[4-(7H-pyrrolo[2,3-d]pyrimidin-4-yl)-1H-pyrazol-1-yl]cyclobutyl}acetonitrile] | < 10 | 25 to 100 |  |
| C[C@H]1CCCN1C(=O)N1CCN([C@H]2C[C@@](CC#N)(n3cc(-c4ncnc5[nH]ccc45)cn3)C2)CC1 [Example 4a, {cis-3-(4-{[(2S)-2-methylpyrrolidin-1-yl]carbonyl}piperazin-1-yl)-1-[4-(7H-pyrrolo[2,3-d]pyrimidin-4-yl)-1H-pyrazol-1-yl]cyclobutyl}acetonitrile] |  |  | IC50 ([1]; Table A, read-out: JAK1 IC50): 25 to 100 nM; IC50 (JAK2 (a.a. 828-1132); Table A, read-out: JAK2 IC50): > 100 nM |
| N#CC[C@]1(n2cc(-c3ncnc4[nH]ccc34)cn2)C[C@H](N2CCN(C(=O)c3cc(F)cc(F)c3)CC2)C1 [Example 8b, {trans-3-[4-(3,5-difluorobenzoyl)piperazin-1-yl]-1-[4-(7H-pyrrolo[2,3-d]pyrimidin-4-yl)-1H-pyrazol-1-yl]cyclobutyl}acetonitrile] |  |  | IC50 ([1]; Table B, read-out: JAK1 IC50): < 10 nM; IC50 (JAK2 (a.a. 828-1132); Table B, read-out: JAK2 IC50): < 10 nM |
| N#CC[C@]1(n2cc(-c3ncnc4[nH]ccc34)cn2)C[C@H](N2CCN(C(=O)c3cncc(F)c3)CC2)C1 [Example 10b, {trans-3-{4-[(5-fluoropyridin-3-yl)carbonyl]piperazin-1-yl}-1-[4-(7H-pyrrolo[2,3-d]pyrimidin-4-yl)-1H-pyrazol-1-yl]cyclobutyl}acetonitrile tris(trifluoroacetate) Salt] |  |  | IC50 ([1]; Table B, read-out: JAK1 IC50): < 10 nM; IC50 (JAK2 (a.a. 828-1132); Table B, read-out: JAK2 IC50): 25 to 100 nM |
| N#CC[C@]1(n2cc(-c3ncnc4[nH]ccc34)cn2)C[C@H](N2CCN(C(=O)NC3CCCC3)CC2)C1 [Example 90, 4-{trans-3-(cyanomethyl)-3-[4-(7H-pyrrolo[2,3-d]pyrimidin-4-yl)-1H-pyrazol-1-yl]cyclobutyl}-N-cyclopentylpiperazine-1-carboxamide] | < 10 | 10 to 25 |  |
| N#CC[C@]1(n2cc(-c3ncnc4[nH]ccc34)cn2)C[C@@H](N2CCN(C(=O)c3cc(F)cc(C(F)(F)F)c3)CC2)C1 [Example 17, {cis-3-{4-[3-fluoro-5-(trifluoromethyl)benzoyl]piperazin-1-yl}-1-[4-(7H-pyrrolo[2,3-d]pyrimidin-4-yl)-1H-pyrazol-1-yl]cyclobutyl}acetonitrile] |  |  | IC50 ([1]; Table A, read-out: JAK1 IC50): < 10 nM; IC50 (JAK2 (a.a. 828-1132); Table A, read-out: JAK2 IC50): 25 to 100 nM |
| N#CC[C@]1(n2cc(-c3ncnc4[nH]ccc34)cn2)C[C@H](N2CCN(C(=O)NC(C(F)(F)F)C(F)(F)F)CC2)C1 [Example 152, 4-{trans-3-(Cyanomethyl)-3-[4-(7H-pyrrolo[2,3-d]pyrimidin-4-yl)-1H-pyrazol-1-yl]cyclobutyl}-N-[2,2,2-trifluoro-1-(trifluoromethyl)ethyl]piperazine-1-carboxamide] | < 10 | > 100 |  |

Now from value to molecule, other results behind:

| IC50 ([1]; Table F) [nM] | IC50 (JAK2 (a.a. 828-1132); Table F) [nM] | SMILES | other results |
| --- | --- | --- | --- |
| 10 to 25 | > 100 | CN(C)Cc1cc(C#N)cc(CN2CCN([C@H]3C[C@@](CC#N)(n4cc(-c5ncnc6[nH]ccc56)cn4)C3)CC2)c1 [Example 44, 3-[(4-{cis-3-(cyanomethyl)-3-[4-(7H-pyrrolo[2,3-d]pyrimidin-4-yl)-1H-pyrazol-1-yl]cyclobutyl}piperazin-1-yl)methyl]-5-[(dimethylamino)methyl]benzonitrile] |  |
| < 10 | 25 to 100 | CC(C)(CO)NCc1cc(OC2CCN([C@H]3C[C@](CC#N)(n4cc(-c5ncnc6[nH]ccc56)cn4)C3)CC2)nc(C(F)(F)F)c1 [Example 153, {trans-3-(4-{[4-{[(2-hydroxy-1,1-dimethylethyl)amino]methyl}-6-(trifluoromethyl)pyridin-2-yl]oxy}piperidin-1-yl)-1-[4-(7H-pyrrolo[2,3-d]pyrimidin-4-yl)-1H-pyrazol-1-yl]cyclobutyl}acetonitrile] |  |
| < 10 | 10 to 25 | CN(C)Cc1cc(C(=O)N2CCN([C@H]3C[C@](CC#N)(n4cc(-c5ncnc6[nH]ccc56)cn4)C3)CC2)cc(C(F)F)c1 [Example 74, {trans-3-(4-{3-(difluoromethyl)-5-[(dimethylamino)methyl]benzoyl}piperazin-1-yl)-1-[4-(7H-pyrrolo[2,3-d]pyrimidin-4-yl)-1H-pyrazol-1-yl]cyclobutyl}acetonitrile] |  |
| 10 to 25 | > 100 | N#CC[C@]1(n2cc(-c3ncnc4[nH]ccc34)cn2)C[C@H](N2CCC(Oc3cc(CO)nc(C(F)(F)F)n3)CC2)C1 [Example 146, {trans-3-(4-{[6-(hydroxymethyl)-2-(trifluoromethyl)pyrimidin-4-yl]oxy}piperidin-1-yl)-1-[4-(7H-pyrrolo[2,3-d]pyrimidin-4-yl)-1H-pyrazol-1-yl]cyclobutyl}acetonitrile] |  |
| < 10 | > 100 | CN(C)Cc1cc(OC2CCN([C@H]3C[C@](CC#N)(n4cc(-c5ncnc6[nH]ccc56)cn4)C3)CC2)nc(C(F)(F)F)c1 [Example 130, {trans-3-(4-{[4-[(dimethylamino)methyl]-6-(trifluoromethyl)pyridin-2-yl]oxy}piperidin-1-yl)-1-[4-(7H-pyrrolo[2,3-d]pyrimidin-4-yl)-1H-pyrazol-1-yl]cyclobutyl}acetonitrile] |  |
| < 10 | 10 to 25 | N#CC[C@]1(n2cc(-c3ncnc4[nH]ccc34)cn2)C[C@H](N2CCN(C(=O)c3cc(C4=NCCN4)cc(C(F)(F)F)n3)CC2)C1 [Example 73, {trans-3-(4-{[4-(4,5-dihydro-1H-imidazol-2-yl)-6-(trifluoromethyl)pyridin-2-yl]carbonyl}piperazin-1-yl)-1-[4-(7H-pyrrolo[2,3-d]pyrimidin-4-yl)-1H-pyrazol-1-yl]cyclobutyl}acetonitrile] |  |
| < 10 | 25 to 100 | N#CC[C@]1(n2cc(-c3ncnc4[nH]ccc34)cn2)C[C@H](N2CCN(C(=O)c3cc(C#N)cc(C(F)(F)F)n3)CC2)C1 [Example 71, 2-[(4-{trans-3-(cyanomethyl)-3-[4-(7H-pyrrolo[2,3-d]pyrimidin-4-yl)-1H-pyrazol-1-yl]cyclobutyl}piperazin-1-yl)carbonyl]-6-(trifluoromethyl)isonicotinonitrile] |  |
